system: HCV replicon cells; test: Cell-based HCV replicon assay (replicon RNA by Taqman real time PCR); details: HCV replicon 1b, cells harvested on day 3; read-out: 1b EC50

| SMILES | EC50 [nM] |
| --- | --- |
| C[C@@]1(N=[N+]=[N-])[C@@H]2OP(=O)(OC3CCCC3)OC[C@H]2O[C@H]1n1ccc(=O)[nH]c1=O (stereo partly shown) [Compound 87] | 3100 |
| COC(=O)[C@H](C)NP1(=O)OC[C@H]2O[C@@H](n3ccc(N)nc3=O)[C@](C)(N=[N+]=[N-])[C@@H]2O1 (single isomer, unassigned) [Compound 530] | 67000 |

same assay, conditions: Hepatitis C virus, 72 h, HCV replicon 1b, cells harvested on day 3; read-out: 1b EC50

| SMILES | EC50 [nM] |
| --- | --- |
| CCOc1nc(N)nc2c1ncn2[C@@H]1O[C@@H]2COP(=O)(OC(C)C)O[C@H]2[C@@]1(C)N=[N+]=[N-] (stereo partly shown) [Compound 23] | 69000 |
| COc1nc(N)nc2c1ncn2[C@@H]1O[C@@H]2COP(=O)(OC3CCC3)O[C@H]2[C@@]1(C)N=[N+]=[N-] (single isomer, unassigned) [Compound 102] | 11000 |

same assay, conditions: Hepatitis C virus, 72 h, read-out: 1b EC50

| SMILES | EC50 [nM] |
| --- | --- |
| CC(C)OC(=O)[C@H](C)NP(=O)(OC[C@H]1O[C@@H](n2ccc(N)nc2=O)[C@](C)(N=[N+]=[N-])[C@@H]1O)Oc1ccccc1 (stereo partly shown) [Compound 22] | 3100 |
| CCCOC(=O)[C@H](C)NP(=O)(OC[C@H]1O[C@@H](n2cnc3c(OCC)nc(N)nc32)[C@](C)(N=[N+]=[N-])[C@@H]1O)Oc1ccccc1 (single isomer, unassigned) [Compound 163] | 1100 |
| CC(C)OC(=O)[C@H](C)NP(=O)(OC[C@H]1O[C@@H](n2ccc(N)nc2=O)[C@](C)(N=[N+]=[N-])[C@@H]1O)Oc1ccc(F)cc1 (stereo partly shown) [Compound 196] | 39000 |
| CCOc1nc(N)nc2c1ncn2[C@@H]1O[C@H](COP(=O)(N[C@@H](C)C(=O)OCC(C)(C)C)Oc2ccccc2)[C@@H](O)[C@@]1(C)N=[N+]=[N-] (stereo partly shown) [Compound 11] | 1100 |
| COC(=O)[C@H](C)NP(=O)(OC[C@H]1O[C@@H](n2cnc3c(OC)nc(N)nc32)[C@](C)(N=[N+]=[N-])[C@@H]1O)Oc1ccccc1Cl (single isomer, unassigned) [Compound 256] | 1400 |
| CCCOC(=O)[C@H](C)NP(=O)(OC[C@H]1O[C@@H](n2ccc(=O)[nH]c2=O)[C@](C)(N=[N+]=[N-])[C@@H]1O)Oc1ccccc1 (single isomer, unassigned) [Compound 147] | 5600 |
| CCCCOC(=O)[C@H](C)NP(=O)(OC[C@H]1O[C@@H](n2cnc3c(OCC)nc(N)nc32)[C@](C)(N=[N+]=[N-])[C@@H]1O)Oc1ccc(F)cc1 (stereo partly shown) [Compound 366] | 400 |
| COc1nc(N)nc2c1ncn2[C@@H]1O[C@H](COP(=O)(N[C@@H](C)C(=O)OCC(C)C)Oc2ccc(Cl)cc2)[C@@H](O)[C@@]1(C)N=[N+]=[N-] (stereo partly shown) [Compound 285] | 1100 |
| CC(C)OC(=O)[C@H](C)NP(=O)(OC[C@H]1O[C@@H](n2cnc3c(N4CCC4)nc(N)nc32)[C@](C)(N=[N+]=[N-])[C@@H]1O)Oc1ccccc1 (stereo partly shown) [Compound 392] | 5600 |
| COC(=O)[C@H](C)NP(=O)(OC[C@H]1O[C@@H](n2cnc3c(NC4CC4)nc(N)nc32)[C@](C)(N=[N+]=[N-])[C@@H]1O)Oc1ccccc1Cl (stereo partly shown) [Compound 385] | 1400 |
| COC(=O)c1ccccc1OP(=O)(N[C@@H](C)C(=O)OC(C)C)OC[C@H]1O[C@@H](n2ccc(=O)[nH]c2=O)[C@](C)(N=[N+]=[N-])[C@@H]1O (stereo partly shown) [Compound 219] | 22000 |
| CCCCOC(=O)[C@H](C)NP(=O)(OC[C@H]1O[C@@H](n2ccc(=O)[nH]c2=O)[C@](C)(N=[N+]=[N-])[C@@H]1O)Oc1ccc(Cl)cc1 (stereo partly shown) [Compound 369] | 500 |
| C[C@H](NP(=O)(OC[C@H]1O[C@@H](n2ccc(=O)[nH]c2=O)[C@](C)(N=[N+]=[N-])[C@@H]1O)Oc1ccc(Cl)cc1)C(=O)OC1CCCCC1 (stereo partly shown) [Compound 324] | 4300 |
| CCOc1nc(N)nc2c1ncn2[C@@H]1O[C@H](COP(=O)(N[C@@H](C)C(=O)OC)Oc2ccc(F)cc2)[C@@H](O)[C@@]1(C)N=[N+]=[N-] (single isomer, unassigned) [Compound 173] | 600 |
| CCOC(=O)[C@H](C)NP(=O)(OC[C@H]1O[C@@H](n2cnc3c(OCC)nc(N)nc32)[C@](C)(N=[N+]=[N-])[C@@H]1O)Oc1ccccc1 (stereo partly shown) [Compound 10] | 900 |
| CCOc1nc(N)nc2c1ncn2[C@@H]1O[C@H](COP(=O)(N[C@@H](C)C(=O)OC)Oc2cccc3ccccc23)[C@@H](O)[C@@]1(C)N=[N+]=[N-] (stereo partly shown) [Compound 70] | 400 |
| CCOc1nc(N)nc2c1ncn2[C@@H]1O[C@H](COP(=O)(N[C@@H](C)C(=O)OC(C)C)Oc2ccccc2Cl)[C@@H](O)[C@@]1(C)N=[N+]=[N-] (stereo partly shown) [Compound 59] | 10000 |
| CCCCOC(=O)[C@H](C)NP(=O)(OC[C@H]1O[C@@H](n2cnc3c(OCC)nc(N)nc32)[C@](C)(N=[N+]=[N-])[C@@H]1O)Oc1ccccc1 (single isomer, unassigned) [Compound 167] | 1200 |
| CCOc1nc(N)nc2c1ncn2[C@@H]1O[C@H](COP(=O)(N[C@@H](C)C(=O)OC)Oc2ccc(Cl)c(Cl)c2)[C@@H](O)[C@@]1(C)N=[N+]=[N-] (stereo partly shown) [Compound 308] | 2100 |
| CCCCOC(=O)[C@H](C)NP(=O)(OC[C@H]1O[C@@H](n2cnc3c(OCC)nc(N)nc32)[C@](C)(N=[N+]=[N-])[C@@H]1O)Oc1ccc2c(c1)OCO2 (stereo partly shown) [Compound 371] | 1400 |
| C[C@H](NP(=O)(OC[C@H]1O[C@@H](n2ccc(N)nc2=O)[C@](C)(N=[N+]=[N-])[C@@H]1O)Oc1ccccc1)C(=O)OCc1ccccc1 (single isomer, unassigned) [Compound 191] | 25000 |

same assay, conditions: read-out: 1b EC50

| SMILES | EC50 [nM] |
| --- | --- |
| COC(=O)[C@H](C)NP(=O)(OC[C@H]1O[C@@H](n2ccc(N)nc2=O)[C@](C)(N=[N+]=[N-])[C@@H]1O)Oc1ccc(Cl)cc1 (single isomer, unassigned) [Compound 186] | 2000 |
| COC(=O)[C@H](C)NP(=O)(OC[C@H]1O[C@@H](n2ccc(N)nc2=O)[C@](C)(N=[N+]=[N-])[C@@H]1O)Oc1ccccc1Cl (single isomer, unassigned) [Compound 202] | 10000 |
| COC(=O)[C@H](C)NP(=O)(OC[C@H]1O[C@@H](n2ccc(N)nc2=O)[C@](C)(N=[N+]=[N-])[C@@H]1O)Oc1ccc(F)cc1 (single isomer, unassigned) [Compound 187] | 22000 |
| CCOC(=O)[C@H](C)NP(=O)(OC[C@H]1O[C@@H](n2cnc3c(OC)nc(N)nc32)[C@](C)(N=[N+]=[N-])[C@@H]1O)Oc1ccccc1 (stereo partly shown) [Compound 54] | 300 |
| CCCCOC(=O)[C@H](C)NP(=O)(OC[C@H]1O[C@@H](n2cnc3c(OCC)nc(N)nc32)[C@](C)(N=[N+]=[N-])[C@@H]1O)Oc1cccc2ccccc12 (single isomer, unassigned) [Compound 172] | 400 |
| COC(=O)[C@H](C)NP(=O)(OC[C@H]1O[C@@H](n2ccc(N)nc2=O)[C@](C)(N=[N+]=[N-])[C@@H]1O)Oc1ccccc1Cl (single isomer, unassigned) [Compound 331] | 10000 |
| CC(C)COC(=O)[C@H](C)NP(=O)(OC[C@H]1O[C@@H](n2ccc(=O)[nH]c2=O)[C@](C)(N=[N+]=[N-])[C@@H]1O)Oc1ccccc1 (single isomer, unassigned) [Compound 211] | 800 |
| CCCOC(=O)[C@H](C)NP(=O)(OC[C@H]1O[C@@H](n2cnc3c(OCC)nc(N)nc32)[C@](C)(N=[N+]=[N-])[C@@H]1O)Oc1ccccc1 (single isomer, unassigned) [Compound 164] | 1000 |
| COc1nc(N)nc2c1ncn2[C@@H]1O[C@H](COP(=O)(N[C@@H](C)C(=O)OC(C)C)Oc2ccccc2)C(O)[C@@]1(C)N=[N+]=[N-] (single isomer, unassigned) [Compound 253] | 600 |
| CCOC(=O)[C@H](C)NP(=O)(OC[C@H]1O[C@@H](n2cnc3c(OCC)nc(N)nc32)[C@](C)(N=[N+]=[N-])[C@@H]1O)Oc1ccc(F)cc1 (single isomer, unassigned) [Compound 176] | 300 |
| COC(=O)[C@H](C)NP(=O)(OC[C@H]1O[C@@H](n2ccc(=O)[nH]c2=O)[C@](C)(N=[N+]=[N-])[C@@H]1O)Oc1ccc(Cl)cc1 (single isomer, unassigned) [Compound 326] | 500 |
| COc1nc(N)nc2c1ncn2[C@@H]1O[C@H](COP(=O)(N[C@@H](C)C(=O)OCc2ccccc2)Oc2ccccc2)[C@@H](O)[C@@]1(C)N=[N+]=[N-] (single isomer, unassigned) [Compound 279] | 1000 |
| CCOC(=O)[C@H](C)NP(=O)(OC[C@H]1O[C@@H](n2cnc3c(OCC)nc(N)nc32)[C@](C)(N=[N+]=[N-])[C@@H]1O)Oc1ccccc1Cl (single isomer, unassigned) [Compound 359] | 3300 |
| CCOc1nc(N)nc2c1ncn2[C@@H]1O[C@H](COP(=O)(N[C@@H](C)C(=O)OC)Oc2ccc(F)cc2)[C@@H](O)[C@@]1(C)N=[N+]=[N-] (single isomer, unassigned) [Compound 174] | 500 |
| COc1nc(N)nc2c1ncn2[C@@H]1O[C@H](COP(=O)(N[C@@H](C)C(=O)OCC(C)(C)C)Oc2ccccc2)C(O)[C@@]1(C)N=[N+]=[N-] (single isomer, unassigned) [Compound 291] | 2400 |
| CC(C)OC(=O)[C@H](C)NP(=O)(OC[C@H]1O[C@@H](n2ccc(N)nc2=O)[C@](C)(N=[N+]=[N-])[C@@H]1O)Oc1ccccc1Cl (single isomer, unassigned) [Compound 204] | 1300 |
| COC(=O)[C@H](C)NP(=O)(OC[C@H]1O[C@@H](n2ccc(N)nc2=O)[C@](C)(N=[N+]=[N-])[C@@H]1O)Oc1ccc(Cl)c(Cl)c1 (single isomer, unassigned) [Compound 344] | 35000 |
| COc1nc(N)nc2c1ncn2[C@@H]1O[C@H](COP(=O)(N[C@@H](C)C(=O)OC2CCCCC2)Oc2ccccc2)[C@@H](O)[C@@]1(C)N=[N+]=[N-] (single isomer, unassigned) [Compound 274] | 8700 |
| CCCCOC(=O)[C@H](C)NP(=O)(OC[C@H]1O[C@@H](n2cnc3c(OC)nc(N)nc32)[C@](C)(N=[N+]=[N-])C1O)Oc1ccccc1 (single isomer, unassigned) [Compound 263] | 1500 |
| COc1nc(N)nc2c1ncn2[C@@H]1O[C@H](COP(=O)(N[C@@H](C)C(=O)OCC(C)(C)C)Oc2ccccc2)C(O)[C@@]1(C)N=[N+]=[N-] (single isomer, unassigned) [Compound 292] | 400 |
| COc1nc(N)nc2c1ncn2[C@@H]1O[C@H](COP(=O)(N[C@@H](C)C(=O)OC2CCCCC2)Oc2ccc(F)cc2)[C@@H](O)[C@@]1(C)N=[N+]=[N-] (single isomer, unassigned) [Compound 265] | 2500 |

Source: US9156872B2, “2′-azido substituted nucleoside derivatives and methods of use thereof for the treatment of viral diseases” (priority 2011, dated 2015)
